According to patent US20130310256A1, “HERBICIDAL COMPOSITIONS COMPRISING 4-AMINO-3-CHLORO-5-FLUORO-6-(4-CHLORO-2-FLUORO-3-METHOXYPHENYL) PYRIDINE-2-CARBOXYLIC ACID OR A DERIVATIVE THEREOF AND VLCFA AND LIPID SYNTHESIS INHIBITING HERBICIDES” (DOW AGROSCIENCES LLC, priority 2008, published 2013):

Tests used:
[1] = tested on: LEFCH; assay: Example I: postemergence foliar-applied weed control, greenhouse; type: in vivo, Leptochloa chinensis (L.) Nees (Chinese sprangletop); details: for Visual Weed Control (%) - 19 DAA LEFCH Obs / Visual Weed Control (%) - 22 DAA LEFCH Obs: foliar; for Visual Weed Control Obs: 20 DAA
Excerpt: (§1) Seeds or nutlets of the desired test plant species were planted in a soil matrix prepared by mixing a loam or sandy loam soil (e.g., 28.6 percent silt, 18.8 percent clay, and 52.6 percent sand, with a pH of about 5.8 and an organic matter content of about 1.8 percent) and calcareous grit in an 80 to 20 ratio. The soil matrix was contained in plastic pots with a volume of 1 quart and a surface area of 83.6 square centimeters (cm^2). When required to ensure good germination and healthy plants, a fungicide treatment and/or other chemical or physical treatment was applied. The plants were grown for 8-22 days in a greenhouse with an approximate 14 hr photoperiod which was maintained at about 29° C. during the day and 26° C. during the night. Nutrients (Peters Excel® 15-5-15 5-Ca 2-Mg and iron chelate) were applied in the irrigation solution as needed and water was added on a regular basis. Supplemental lighting was provided with overhead metal halide 1000-Watt lamps as necessary. The plants were employed for testing when they reached the first through fourth true leaf stage.
(§2) Treatments consisted of the acid or esters of 4-amino-3-chloro-5-fluoro-6-(4-chloro-2-fluoro-3-methoxy-phenyl)pyridine-2-carboxylic acid (Compound A), each formulated as an SC (suspension concentrate), and various herbicidal components alone and in combination. Forms of compound A were applied on an acid equivalent basis.
(§3) Other herbicidal components were applied on an active ingredient basis and included very long chain fatty acid (VLCFA) synthesis-inhibiting and fatty acid/lipid synthesis-inhibiting herbicides acetochlor (technical grade material), acetochlor+dichlormid formulated as Topnotch®, pretilachlor (technical grade material), butachlor formulated as Butachlor EC, fentrazamide formulated as Fentrazamide EC, thiobencarb formulated as Bolero® 8EC, cafenstrole formulated as Himeadow® WP or Lapost® Flowable, benfuresate formulated as Full Shot®, dimethenamid-P formulated as Outlook®, indanofan (technical grade material), flufenacet formulated as Define® DF, mefenacet (technical grade material), S-metolachlor formulated as Dual® II Magnum, pethoxamid formulated as Successor® 600, and pyroxasulfone (technical grade material).
(§4) Treatment requirements were calculated based upon the rates being tested, the concentration of active ingredient or acid equivalent in the formulation, and a 12 mL application volume at a rate of 187 L/ha.
(§5) For treatments comprised of formulated compounds, measured amounts of compounds were placed individually in 25 mL glass vials and diluted in a volume of 1.25% (v/v) Agri-Dex® crop oil concentrated to obtain 12× stock solutions. […] Application solutions were prepared by adding an appropriate amount of each stock solution (e.g., 1 mL) and diluted to the appropriate final concentrations with the addition of 10 mL of an aqueous mixture of 1.25% (v/v) crop oil concentrate so that the final spray solutions contained 1.25+/−0.05% (v/v) crop oil concentrate.
(§6) For treatments comprised of technical compounds, weighed amounts can be placed individually in 25 mL glass vials and dissolved in a volume of 97:3 v/v acetone/DMSO to obtain 12× stock solutions. […] Application solutions can be prepared by adding an appropriate amount of each stock solution (e.g., 1 mL) and diluted to the appropriate final concentrations with the addition of 10 mL of an aqueous mixture of 1.5% (v/v) crop oil concentrate so that the final spray solutions contain 1.25% (v/v) crop oil concentrate. When technical materials are used, the concentrated stock solutions can be added to the spray solutions so that the final acetone and DMSO concentrations of the application solutions are […], respectively. […]

[2] = tested on: ECHCO; assay: as above; type: in vivo, Echinochloa colona (L.) Link (junglerice); details: for Visual Weed Control (%) - 19 DAA ECHCO Obs: foliar; for Visual Weed Control Obs: 20 DAA
Excerpt: as §1, §2, §3, §4, §5, §6

[3] = tested on: LEFCH; assay: Example II: in-water applied weed control, transplanted paddy rice, greenhouse; type: in vivo, Leptochloa chinensis (L.) Nees (Chinese sprangletop); details: 19 DAA
Method: (§7) Weed seeds or nutlets of the desired test plant species were planted in puddled soil (mud) prepared by mixing a shredded, non-sterilized mineral soil (50.5 percent silt, 25.5 percent clay, and 24 percent sand, with a pH of about 7.6 and an organic matter content of about 2.9 percent) and water at a 1:1 volumetric ratio. The prepared mud was dispensed in 365 mL aliquots into 16-ounce (oz.) non-perforated plastic pots with a surface area of 86.59 square centimeters (cm^2) leaving a headspace of 3 centimeters (cm) in each pot. Mud was allowed to dry overnight prior to planting or transplanting. Rice seeds were planted in Sun Gro MetroMix® 306 planting mixture, which typically has a pH of 6.0 to 6.8 and an organic matter content of about 30 percent, in plastic plug trays. Seedlings at the second or third leaf stage of growth were transplanted into 840 mL of mud contained in 32-oz. non-perforated plastic pots with a surface area of 86.59 cm^2 4 days prior to herbicide application. The paddy was created by filling the headspace of the pots with 2.5 to 3 cm of water. When required to ensure good germination and healthy plants, a fungicide treatment and/or other chemical or physical treatment was applied. The plants were grown for 4-22 days in a greenhouse with an approximate 14 hr photoperiod which was maintained at about 29′C during the day and 26° C. during the night. Nutrients were added as Osmocote® (19:6:12, N:P:K+ minor nutrients) at 2 g per 16-oz. pot and 4 g per 32-oz. pot. Water was added on a regular basis to maintain the paddy flood, and supplemental lighting was provided with overhead metal halide 1000-Watt lamps as necessary. The plants were employed for testing when they reached the first through fourth true leaf stage.
as §2, with “(compound A)” for “(Compound A),”, “concentrate)” for “concentrate),”
(§8) The herbicidal components were applied on an active ingredient basis and included very long chain fatty acid (VLCFA) synthesis-inhibiting and fatty acid/lipid synthesis-inhibiting herbicides acetochlor (technical grade material), acetochlor+dichlormid formulateded as Topnotch®, pretilachlor (technical grade material), butachlor formulated as Butachlor EC, fentrazamide formulated as Fentrazamide EC, thiobencarb formulated as Bolero® 8EC, cafenstrole formulated as Himeadow® WP or Lapost® Flowable, benfuresate formulated as Full Shot®, anilofos (technical grade material), mefenacet (technical grade material), molinate (technical grade material), and thenylchlor (technical grade material).
(§9) Treatment requirements for each compound or herbicidal component were calculated based upon the rates being tested, the concentration of active ingredient or acid equivalent in the formulation, an application volume of 2 mL per component per pot, and an application area of 86.59 cm^2 per pot.
(§10) For formulated compounds, a measured amount was placed in an individual 100 or 200 mL glass vial and was dissolved in a volume of 1.25% (v/v) Agri-Dex® crop oil concentrate to obtain application solutions.
(§11) For technical grade compounds, a weighed amount was placed in an individual 100 to 200 mL glass vial and was dissolved in a volume of acetone to obtain concentrated stock solutions. […] The concentrated stock solutions obtained were diluted with an equivalent volume of an aqueous mixture containing 2.5% (v/v) crop oil concentrate so that the final application solutions contained 1.25% (v/v) crop oil concentrate.
(§12) Applications were made by injecting with a pipetter appropriate amounts of the application solutions, individually and sequentially, into the aqueous layer of the paddy. Control plants were treated in the same manner with the solvent blank. […]

[4] = tested on: CYPRO; assay: as above; type: in vivo, Cyperus rotundus L. (purple nutsedge)
Method: as §7
as §2, with “(compound A)” for “(Compound A),”, “concentrate)” for “concentrate),”
as §8, §9, §10, §11, §12

[5] = tested on: BRAPP; assay: Example I: postemergence foliar-applied weed control, direct seeded rice weeds, greenhouse; type: in vivo; details: for Visual Weed Control Obs: 20 DAA; for Visual Weed Control (%) - 22 DAA BRAPP Obs: foliar
Excerpt: as §1, §2, §3, §4, §5, §6

[6] = tested on: ECHCG; assay: Example II: in-water applied weed control, transplanted paddy rice, greenhouse; type: in vivo, Echinochloa crus-galli (L.) Beauv. (barnyardgrass)
Method: as §7
as §2, with “(compound A)” for “(Compound A),”, “concentrate)” for “concentrate),”
as §8, §9, §10, §11, §12

[7] = tested on: ECHOR; assay: as above; type: in vivo, Echinochloa oryzoides (Ard.) Fritsch (early watergrass)
Method: as §7
as §2, with “(compound A)” for “(Compound A),”, “concentrate)” for “concentrate),”
as §8, §9, §10, §11, §12

[8] = tested on: IPOHE; assay: Example I: postemergence foliar-applied weed control, greenhouse; type: in vivo, Ipomoea hederacea Jacq. (ivyleaf morningglory); details: 20 DAA
Excerpt: as §1, §2, §3, §4, §5, §6

[9] = tested on: ECHCG; assay: as above; type: in vivo, Echinochloa crus-galli (L.) Beauv. (barnyardgrass); details: for Visual Weed Control Obs: 20 DAA
Excerpt: as §1, §2, §3, §4, §5, §6

[10] = tested on: CYPIR; assay: as above; type: in vivo, Cyperus iria L. (rice flatsedge); details: foliar
Excerpt: as §1, §2, §3, §4, §5, §6

CCC1(CC2(c3cccc(Cl)c3)CO2)C(=O)c2ccccc2C1=O (racemic) [Indanofan, (RS)-2-[[2-(3-chlorophenyl)oxiranyl]methyl]-2-ethyl-1H-indene-1,3(2H)-dione]
Visual Weed Control (%) - 19 DAA LEFCH Obs ([1]; 37.5 gai/ha): 0%
Visual Weed Control (%) - 19 DAA LEFCH Obs ([1]; 75 gai/ha): 0%
Visual Weed Control (%) - 19 DAA ECHCO Obs ([2]; 37.5 gai/ha): 0%
Visual Weed Control (%) - 19 DAA ECHCO Obs ([2]; 75 gai/ha): 0%
Visual Weed Control (%) - 19 DAA ECHCO Obs ([2]; 150 gai/ha): 35%
Visual Weed Control LEFCH Obs ([3]; 37.5 gai/ha): 10%
Visual Weed Control LEFCH Obs ([3]; 75 gai/ha): 20%
Visual Weed Control LEFCH Obs ([3]; 150 gai/ha): 95%

CCCCOCN(C(=O)CCl)c1c(CC)cccc1CC [Butachlor, N-(butoxymethyl)-2-chloro-N-(2,6-diethylphenyl)acetamide]
Visual Weed Control Obs ([1]; 112.5 gai/ha): 0%
Visual Weed Control Obs ([1]; 225 gai/ha): 0%
Visual Weed Control Obs ([1]; 450 gai/ha): 0%
Visual Weed Control (%) - 21 DAA CYPRO Obs ([4]; 225 gai/ha): 0%
Visual Weed Control (%) - 21 DAA CYPRO Obs ([4]; 450 gai/ha): 0%
Visual Weed Control Obs ([5]; 112.5 gai/ha): 0%
Visual Weed Control Obs ([5]; 225 gai/ha): 0%
Visual Weed Control Obs ([5]; 450 gai/ha): 0%
Visual Weed Control (%) - 21 DAA ECHCG Obs ([6]; 225 gai/ha): 40%
Visual Weed Control (%) - 21 DAA ECHCG Obs ([6]; 450 gai/ha): 20%
Visual Weed Control Obs ([2]; 112.5 gai/ha): 0%
Visual Weed Control Obs ([2]; 225 gai/ha): 0%
Visual Weed Control Obs ([2]; 450 gai/ha): 0%
Visual Weed Control (%) - 21 DAA ECHOR Obs ([7]; 225 gai/ha): 0%
Visual Weed Control (%) - 21 DAA ECHOR Obs ([7]; 450 gai/ha): 20%
Visual Weed Control Obs ([8]; 112.5 gai/ha): 20%
Visual Weed Control Obs ([8]; 450 gai/ha): 30%
Visual Weed Control Obs ([9]; 112.5 gai/ha): 0%
Visual Weed Control Obs ([9]; 225 gai/ha): 0%
Visual Weed Control Obs ([9]; 450 gai/ha): 0%

CN(C(=O)COc1nc2ccccc2s1)c1ccccc1 [Mefenacet, 2-(2-benzothiazolyloxy)-N-methyl-N-phenylacetamide]
Visual Weed Control (%) - 22 DAA LEFCH Obs ([1]; 50 gai/ha): 10%
Visual Weed Control (%) - 22 DAA LEFCH Obs ([1]; 100 gai/ha): 0%
Visual Weed Control (%) - 22 DAA BRAPP Obs ([5]; 50 gai/ha): 0%
Visual Weed Control (%) - 22 DAA BRAPP Obs ([5]; 100 gai/ha): 0%
Visual Weed Control (%) - 22 DAA BRAPP Obs ([5]; 200 gai/ha): 0%
pest or weed control at 300 g/ha ([7]; Echinochloa oryzoides, 504 h, 300 gai/ha, 21 DAA, read-out: Visual Weed Control ECHOR Obs): 80%
pest or weed control at 600 g/ha ([7]; Echinochloa oryzoides, 504 h, 600 gai/ha, 21 DAA, read-out: Visual Weed Control ECHOR Obs): 100%
pest or weed control at 1200 g/ha ([7]; Echinochloa oryzoides, 504 h, 1200 gai/ha, 21 DAA, read-out: Visual Weed Control ECHOR Obs): 100%
Visual Weed Control (%) - 22 DAA CYPIR Obs ([10]; 100 gai/ha): 0%
Visual Weed Control (%) - 22 DAA CYPIR Obs ([10]; 200 gai/ha): 20%

CCSC(=O)N1CCCCCC1 [Molinate, S-ethyl hexahydro-1H-azepine-1-carbothioate]
pest or weed control at 1400 g/ha ([7]; Echinochloa oryzoides, 504 h, 1400 gai/ha, 21 DAA, read-out: Visual Weed Control ECHOR Obs): 55%
pest or weed control at 2800 g/ha ([7]; Echinochloa oryzoides, 504 h, 2800 gai/ha, 21 DAA, read-out: Visual Weed Control ECHOR Obs): 85%

Cn1nc(C(F)(F)F)c(CS(=O)(=O)C2=NOC(C)(C)C2)c1OC(F)F [Pyroxasulfone, 3-[[[5-(difluoromethoxy)-1-methyl-3-(trifluoromethyl)-1H-pyrazol-4-yl]methyl]sulfonyl]-4,5-dihydro-5,5-dimethylisoxazole]
Visual Weed Control (%) - 22 DAA BRAPP Obs ([5]; 29.5 gai/ha): 0%
Visual Weed Control (%) - 22 DAA BRAPP Obs ([5]; 59 gai/ha): 0%
Visual Weed Control (%) - 22 DAA BRAPP Obs ([5]; 118 gai/ha): 20%
Visual Weed Control (%) - 22 DAA ECHCG Obs ([9]; 59 gai/ha, foliar): 70%

COc1ccsc1CN(C(=O)CCl)c1c(C)cccc1C [Thenylchlor, 2-chloro-N-(2,6-dimethylphenyl)-N-[(3-methoxy-2-thienyl)methyl]acetamide]
pest or weed control at 135 g/ha ([7]; Echinochloa oryzoides, 456 h, 135 gai/ha, 19 DAA, read-out: Visual Weed Control ECHOR Obs): 35%
pest or weed control at 270 g/ha ([7]; Echinochloa oryzoides, 456 h, 270 gai/ha, 19 DAA, read-out: Visual Weed Control ECHOR Obs): 90%
Visual Weed Control LEFCH Obs ([3]; 135 gai/ha): 15%
Visual Weed Control LEFCH Obs ([3]; 270 gai/ha): 25%
